Entries after “also recorded” stand apart in the source; their conditions may differ.
Experiments:
HLA-DR1301 [1] = biological target: T1, HLA-DR1301 (Homo sapiens, UniProt P01903+P01911, A100E/A169T/K41T/L162R/M171V/P40S/Q125H/Q178H/Q39Y/Q99D/R42S/S66N/T262R/W38E/Y61H); test: IL-2 secretion functional blocking assay, DR1301-restricted TCR transfectants with MBP 152-165; type: cell-based; conditions: for specificity for DR-1301 as compared with DR-1501, by inhibitory effect on IL-2 secretion: DR1301- versus DR1501-restricted TCR transfectants; for inhibition of IL-2 secretion / blocking of antigen presentation by DR-1301: DR1301 and TCR transfectants, MBP peptide, IL-2 in supernatant by ELISA
T1 construct: expressed in transfected cells; host or cells: DAP.3 murine fibroblasts (gift of C. Hurley and R. Rosen-Bronson)
Text: The murine T-cell hybridoma cell line BW58α-β- (a gift of […] and W. Born) was used for transfection of human TCRα and β cDNA isolated from patients with multiple sclerosis (Hastings, 1996). The parental DAP.3 murine fibroblast cell line was used for transfection of DR(α,β1*1301) or DR((α,β*1501) as previously described (a gift of C. Hurley and R. Rosen-Bronson)) ([Hurley, 1995), [Posch, 1995), [Rosen-Bronson, 1991). All cells lines were maintained in DMEM supplemented with 10% fetal calf serum, 50 U/ml penicillin G, 50 μg/ml streptomycin, 1 mM sodium pyruvate, 2 mM glutamine, and 10 mM HEPES buffer (all Gibco/BRL, Gaithersburg, Md.). TCR- and HLA-transfectants were expanded using 1 mg/ml G418 (Gibco/BRL), or 1 mg/ml G418 and 1 mg/ml hygromycin (Calbiochem, San Diego, Calif.), respectively. Cells were washed and resuspended in DMEM complete medium without antibodies. 10^5 cells of the TCR-transfected or untransfected (control) BW58α-β- cells and an equal number of DR-transfected or untransfected (control) Dap.3 cells were incubated with MBP 152-165, or MBP 83-97 and various concentrations of compound, using an U-bottom 96 well plate (Costar). Cell culture supernatants were harvested after […] and stored at -70° C. until use. IL-2 cytokine concentrations (pg/ml) of supernatants were measured by ELISA (Genzyme, Cambridge, Mass.) according to the manufacturer's instructions. The activity of compounds identified by MCDOCK in functional assays that measure inhibition of IL-2 secretion by DR1301 and DR1501-restricted TCR transfectants using compound #105 and several other compounds was evaluated. The results obtained with compound #105 are contained in FIG. 3. In the figure t1 and t2 represent dose-response curves generated in two different experiments. TCR and DR transfectants were incubated for 36 hours with or without compound and the appropriate MBP peptide. IL-2 concentration of the supernatants was then analyzed by ELISA.

HLA-DR1301 [2] = biological target: T1, HLA-DR1301; test: Competitive peptide-binding assay with biotinylated MBP peptide; conditions: analog at 6.25 μM to 400 μM, OD at 450 nm
Description: 1.5×10^6 HLA-DR-transfected Dap.3 cells were washed in Hanks' Balanced Salt Solution, fixed with 1% paraformaldehyde, washed with RPMI medium and PBS, and resuspended in binding buffer. Biotinylated MBP peptide was added at 200 μg/ml (for MBP 152-165) or 1 μg/ml (for MBP 83-97). BSA was added at 1%. The blocking compound (analogue 6) was added at multiple concentrations ranging from 6.25 μM to 400 μM and incubated overnight in a shaking water bath at 37° C. The samples were then washed and lysed with 100 μl lysis buffer containing 1% nonidet-P40 on ice for 40 min. After centrifugation, the supernatant containing the cell membrane fragments was […] to a 96-well plate pre-coated with the L243 monoclonal antibody that binds to all HLA-DR molecules. The lysis buffer was neutralized with 100 μl n-octyl-β-D-glucopyranoside overnight at 4° C. The samples were then washed and incubated with streptavidin-peroxidase for 1 hour at room temperature. […] OD was measured by an ELISA reader at 450 nm. Competition of the compound for the MBP peptide was calculated according to the following formula: [formula]
This assay evaluates the binding of biotinylated MBP peptide to HLA-DR1301 in the presence of different concentrations of the analog (analog 6 of lead compound). The amounts of MBP peptide bound (label) to the HLA molecule are then quantitated based on the amount of biotin detected.

HLA-DR1501 = biological target: T2, HLA-DR1501 (Homo sapiens, UniProt P01903+P01911); test: IL-2 secretion functional blocking assay, DR1501-restricted TCR transfectants with MBP 83-97; type: cell-based; conditions: DR1501 and TCR transfectants, MBP peptide, IL-2 in supernatant by ELISA
T2 construct: expressed in transfected cells; host or cells: DAP.3 murine fibroblasts (gift of C. Hurley and R. Rosen-Bronson)
Text: The murine T-cell hybridoma cell line BW58α-β- (a gift of B. Malissen and W. Born) was used for transfection of human TCRα and β cDNA isolated from patients with multiple sclerosis (Hastings, 1996). The parental DAP.3 murine fibroblast cell line was used for transfection of DR(α,β1*1301) or DR((α,β*1501) as previously described (a gift of C. Hurley and R. Rosen-Bronson)) ([Hurley, 1995), [Posch, 1995), [Rosen-Bronson, 1991). All cells lines were maintained in DMEM supplemented with 10% fetal calf serum, 50 U/ml penicillin G, 50 μg/ml streptomycin, 1 mM sodium pyruvate, 2 mM glutamine, and 10 mM HEPES buffer (all Gibco/BRL, Gaithersburg, Md.). TCR- and HLA-transfectants were expanded using 1 mg/ml G418 (Gibco/BRL), or 1 mg/ml G418 and 1 mg/ml hygromycin (Calbiochem, San Diego, Calif.), respectively.
Cells were washed and resuspended in DMEM complete medium without antibodies. […] IL-2 cytokine concentrations (pg/ml) of supernatants were measured by ELISA (Genzyme, Cambridge, Mass.) according to the manufacturer's instructions.
The activity of compounds identified by MCDOCK in functional assays that measure inhibition of IL-2 secretion by DR1301 and DR1501-restricted TCR transfectants using compound #105 and several other compounds was evaluated. […] IL-2 concentration of the supernatants was then analyzed by ELISA.

| SMILES | specificity for DR-1301 as compared with DR-1501, by inhibitory effect on IL-2 secretion (HLA-DR1301 [1]) | specificity for DR-1301 as compared with DR-1501, by inhibitory effect on IL-2 secretion (HLA-DR1301 [1]; listed as #6) | competition with biotinylated MBP peptide for binding to DR1301 (HLA-DR1301 [2]) | inhibition of IL-2 secretion / blocking of antigen presentation by DR-1301 (HLA-DR1301 [1]) | inhibition of IL-2 secretion / blocking of antigen presentation by DR-1301 (HLA-DR1301 [1]; listed as lead compound #105) | reversal of inhibition of IL-2 production by increasing MBP 152-165 peptide concentration (HLA-DR1301 [1]; MBP 0 to 1200 micrograms/ml, DR1301-restricted TCR transfectants) | inhibition of IL-2 secretion / blocking of antigen presentation by DR-1501 (HLA-DR1501) |
| --- | --- | --- | --- | --- | --- | --- | --- |
| O=C(CNc1ccc(Cl)cc1Cl)NC1C=Cc2ccc(S(=O)(=O)Nc3ccc(Cl)cc3Cl)cc2C1=O (stereo not drawn) [analog #6, 2-[(2,4-dichlorophenyl)amino]-N-(7-{[(2,4-dichlorophenyl)amino]sulfonyl}-1-oxo(2-2-hydronaphthyl))acetamide] | greater degree of specificity for DR-1301 as compared with DR-1501 | greater specificity for DR1301 than #105 | specific binding of the compound to HLA-DR1301; also recorded: specifically competes with MBP peptide for binding to purified DR1301 molecules | – | – | – | – |
| COc1ccc(NS(=O)(=O)c2ccc3ncn(NS(=O)(=O)c4ccc(I)cc4)c(=O)c3c2)cc1 [analog #14, 3-{[(4-iodophenyl)sulfonyl]amino}-6-{[(4-methoxyphenyl)amino]sulfonyl}-3-hydroquinazolin-4-one] | – | – | – | inactive | – | – | – |
| CC(=O)Nc1ccc(NCC(=O)Nn2cnc3ccc(S(=O)(=O)Nc4ccc(NC(C)=O)cc4)cc3c2=O)cc1 [compound #105, 2-{[4-(acetylamino)phenyl]amino}-N-[6-({[4-(acetylamino)phenyl]amino}sulfonyl)-4-oxo(3-hydroquinazolin-3-yl)]acetamide] | most effective in discriminating | – | – | strong inhibition | significant effect | best dose-response curves | weaker inhibition |

Source: patent US20020042423A1, “METHODS FOR IDENTIFYING COMPOUNDS THAT BIND TO HLA MOLECULES AND USE OF SUCH COMPOUNDS AS HLA-AGONISTS OR ANTAGONISTS” (priority 1998, published 2002)
